From patent US20120107239A1, “Precursor of Molecular Probe for Pancreatic Islet Imaging and Use of the Same” (priority 2009, published 2012)
pEC50: −log10 of the molar value.

How the values were obtained:
pancreatic islets = assay: Three-dimensional imaging (PET) of a mouse; format: in vivo; details: 104 μCi intravenously, ddy mouse, image 10 minutes after administration, FIG. 3
Procedure: The molecular probe (compound (6)) was used to perform three-dimensional imaging of a mouse. The molecular probe (104 μCi) was administered intravenously to a 6-week-old ddy mouse (which was male and weighted 25 g) under anesthesia. Then, the three-dimensional imaging was performed with the following PET apparatus and conditions.
Imaging apparatus: eXplore Vista (product name, manufactured by General Electric Company)
Imaging method: Static Scan
Reconstruction: 2DOSEM (Dynamic OS-EM)
The image in FIG. 3 was taken 10 minutes after the administration of the molecular probe (integrating time: 10 minutes). In FIG. 3, the portion indicated by the white circle is near the pancreas.

SU receptor = target: T1, SU receptor (Mus musculus, UniProt B2RUS7); assay: SU receptor binding experiment ([3H]-glibenclamide displacement on dispersed pancreatic islet cells); set-up: species or system mice
T1 construct: the pancreatic islets isolated from the mice were dispersed into single cells; from tissue; host or cells: single cells dispersed from isolated mouse pancreatic islets
Procedure: Next, the pancreatic islets isolated from the mice were dispersed into single cells to prepare 1.7×10^5 cells/sample. A solution containing [^3H]-glibendamide; which was obtained by labeling glibenclamide (4-[2-(5-Chloro-2-methoxybenzoylammo)ethyl]-N-(cyclohexylcarbamoyl)benzenesulfon amide, serving as an SU agent) with ^3H, was added to these cells so that the final concentration of the [^3H]-glibenclamide was 1.85 pmol/L. Subsequently, a reagent containing the compound (7) was added (final concentration of the compound (7): 1×10^−4 to 1×10^−12 M), and incubation was performed at room temperature for 1 hour. The reaction was stopped by filtration, and the radioactivity was measured with a liquid scintillation analyzer.
Therefore, the molecular probe expressed as the formula (7) might have a SUR1 binding site.

SUR1 = SUR1 (Homo sapiens, UniProt Q09428); details: compared with nateglinide; cited from earlier work
Chain of SUR1 (Q09428 whole entry, species assumed): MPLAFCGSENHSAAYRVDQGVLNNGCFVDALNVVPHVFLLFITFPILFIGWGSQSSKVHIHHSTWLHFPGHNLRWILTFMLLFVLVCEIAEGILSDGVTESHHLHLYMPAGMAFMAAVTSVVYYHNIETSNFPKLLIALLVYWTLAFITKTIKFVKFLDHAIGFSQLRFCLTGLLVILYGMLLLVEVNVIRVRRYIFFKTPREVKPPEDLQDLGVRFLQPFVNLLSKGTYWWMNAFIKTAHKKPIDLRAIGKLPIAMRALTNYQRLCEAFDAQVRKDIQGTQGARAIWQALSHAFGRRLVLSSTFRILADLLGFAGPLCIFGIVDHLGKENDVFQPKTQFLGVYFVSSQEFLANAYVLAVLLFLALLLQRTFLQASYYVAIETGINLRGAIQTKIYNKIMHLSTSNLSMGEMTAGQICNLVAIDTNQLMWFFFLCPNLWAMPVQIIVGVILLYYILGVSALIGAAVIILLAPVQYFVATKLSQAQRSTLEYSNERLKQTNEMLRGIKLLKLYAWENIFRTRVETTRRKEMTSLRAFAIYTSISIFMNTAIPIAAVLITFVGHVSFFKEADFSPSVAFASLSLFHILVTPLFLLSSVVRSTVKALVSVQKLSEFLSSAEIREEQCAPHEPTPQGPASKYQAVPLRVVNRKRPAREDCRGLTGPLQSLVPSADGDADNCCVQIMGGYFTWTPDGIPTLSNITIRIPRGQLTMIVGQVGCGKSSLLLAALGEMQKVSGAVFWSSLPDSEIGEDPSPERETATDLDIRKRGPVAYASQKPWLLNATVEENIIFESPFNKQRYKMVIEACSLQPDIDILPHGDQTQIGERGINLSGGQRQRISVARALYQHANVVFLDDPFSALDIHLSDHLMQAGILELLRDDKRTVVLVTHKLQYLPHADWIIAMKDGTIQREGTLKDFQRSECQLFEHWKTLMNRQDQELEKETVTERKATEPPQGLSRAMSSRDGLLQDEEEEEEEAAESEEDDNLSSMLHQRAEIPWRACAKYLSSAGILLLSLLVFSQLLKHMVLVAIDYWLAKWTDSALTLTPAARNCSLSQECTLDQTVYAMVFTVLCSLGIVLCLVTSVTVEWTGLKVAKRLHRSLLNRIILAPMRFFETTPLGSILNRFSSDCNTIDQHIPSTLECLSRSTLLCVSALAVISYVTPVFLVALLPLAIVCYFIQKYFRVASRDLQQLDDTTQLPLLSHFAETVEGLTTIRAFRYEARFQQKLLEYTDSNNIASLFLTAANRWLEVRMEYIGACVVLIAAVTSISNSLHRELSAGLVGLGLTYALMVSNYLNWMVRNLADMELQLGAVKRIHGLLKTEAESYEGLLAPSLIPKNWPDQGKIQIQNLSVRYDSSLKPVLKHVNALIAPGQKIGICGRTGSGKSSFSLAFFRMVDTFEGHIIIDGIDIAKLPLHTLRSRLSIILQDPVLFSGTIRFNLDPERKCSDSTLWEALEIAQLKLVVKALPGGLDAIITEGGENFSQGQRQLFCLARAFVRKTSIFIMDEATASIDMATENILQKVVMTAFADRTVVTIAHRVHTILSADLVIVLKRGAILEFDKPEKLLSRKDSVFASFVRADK
Chain of SUR1 (Q14654 whole entry partner, species assumed): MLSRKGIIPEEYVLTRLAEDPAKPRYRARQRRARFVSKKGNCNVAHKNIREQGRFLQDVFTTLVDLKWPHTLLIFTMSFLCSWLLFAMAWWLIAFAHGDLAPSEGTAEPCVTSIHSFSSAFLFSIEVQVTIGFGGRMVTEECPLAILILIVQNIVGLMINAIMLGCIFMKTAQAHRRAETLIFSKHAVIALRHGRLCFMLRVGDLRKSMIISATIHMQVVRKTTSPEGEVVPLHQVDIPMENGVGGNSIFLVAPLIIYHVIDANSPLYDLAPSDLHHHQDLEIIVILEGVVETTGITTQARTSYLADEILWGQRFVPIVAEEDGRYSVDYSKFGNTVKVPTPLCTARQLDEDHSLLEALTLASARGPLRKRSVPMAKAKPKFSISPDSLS

T1 sequence (B2RUS7 1-1588): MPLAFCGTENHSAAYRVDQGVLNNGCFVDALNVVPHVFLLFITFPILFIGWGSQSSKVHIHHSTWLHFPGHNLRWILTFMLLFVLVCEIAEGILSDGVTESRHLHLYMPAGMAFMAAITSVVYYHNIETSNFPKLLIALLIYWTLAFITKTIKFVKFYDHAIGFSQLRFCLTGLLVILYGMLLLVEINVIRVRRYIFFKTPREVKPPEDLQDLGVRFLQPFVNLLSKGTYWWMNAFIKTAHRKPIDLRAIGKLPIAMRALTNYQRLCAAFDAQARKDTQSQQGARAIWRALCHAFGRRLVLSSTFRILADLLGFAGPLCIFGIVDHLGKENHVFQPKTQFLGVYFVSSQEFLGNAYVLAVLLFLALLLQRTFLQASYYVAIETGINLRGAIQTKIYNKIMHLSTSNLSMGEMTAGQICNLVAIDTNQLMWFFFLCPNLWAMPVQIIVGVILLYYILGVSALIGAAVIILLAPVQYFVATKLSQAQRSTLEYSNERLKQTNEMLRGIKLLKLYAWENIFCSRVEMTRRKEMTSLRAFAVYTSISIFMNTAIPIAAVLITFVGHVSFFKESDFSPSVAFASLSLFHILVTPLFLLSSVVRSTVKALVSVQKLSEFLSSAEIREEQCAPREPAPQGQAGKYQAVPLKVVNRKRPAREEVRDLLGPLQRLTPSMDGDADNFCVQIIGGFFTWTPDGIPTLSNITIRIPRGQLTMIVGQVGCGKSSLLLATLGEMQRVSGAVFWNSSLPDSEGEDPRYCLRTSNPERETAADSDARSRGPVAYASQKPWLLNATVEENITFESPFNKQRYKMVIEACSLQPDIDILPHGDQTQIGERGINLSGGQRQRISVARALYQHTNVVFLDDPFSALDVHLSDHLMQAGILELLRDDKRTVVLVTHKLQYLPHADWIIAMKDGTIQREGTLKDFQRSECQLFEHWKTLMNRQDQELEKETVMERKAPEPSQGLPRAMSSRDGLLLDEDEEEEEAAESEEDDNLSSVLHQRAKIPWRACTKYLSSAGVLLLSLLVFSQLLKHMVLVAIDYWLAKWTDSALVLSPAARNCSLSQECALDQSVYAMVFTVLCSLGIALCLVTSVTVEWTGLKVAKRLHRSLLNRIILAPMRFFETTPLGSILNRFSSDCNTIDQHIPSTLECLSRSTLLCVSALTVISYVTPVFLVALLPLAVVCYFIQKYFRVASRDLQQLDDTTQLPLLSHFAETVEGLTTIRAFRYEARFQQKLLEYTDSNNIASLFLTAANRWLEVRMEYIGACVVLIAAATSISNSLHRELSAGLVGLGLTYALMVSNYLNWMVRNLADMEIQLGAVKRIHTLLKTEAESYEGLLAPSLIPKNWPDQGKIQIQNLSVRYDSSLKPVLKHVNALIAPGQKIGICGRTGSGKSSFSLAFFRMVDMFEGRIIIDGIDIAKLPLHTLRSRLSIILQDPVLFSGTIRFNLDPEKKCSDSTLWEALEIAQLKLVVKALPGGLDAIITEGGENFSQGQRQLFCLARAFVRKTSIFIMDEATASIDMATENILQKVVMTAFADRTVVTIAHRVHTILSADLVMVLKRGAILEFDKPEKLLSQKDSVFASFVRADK
T1 sequence (Q61743 whole entry partner): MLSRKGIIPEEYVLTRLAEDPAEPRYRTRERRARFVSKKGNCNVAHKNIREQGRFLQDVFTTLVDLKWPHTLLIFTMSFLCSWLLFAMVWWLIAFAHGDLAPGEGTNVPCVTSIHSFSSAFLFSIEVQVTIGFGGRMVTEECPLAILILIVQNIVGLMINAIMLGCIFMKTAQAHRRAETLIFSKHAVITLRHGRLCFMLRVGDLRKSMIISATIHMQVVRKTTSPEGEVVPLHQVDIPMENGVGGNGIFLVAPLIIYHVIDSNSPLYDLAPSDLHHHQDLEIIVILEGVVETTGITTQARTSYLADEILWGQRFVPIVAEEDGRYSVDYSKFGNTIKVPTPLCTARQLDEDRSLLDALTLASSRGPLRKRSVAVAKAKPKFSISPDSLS

Q: Which “PET imaging result (distinguishing the pancreas)” value (pancreatic islets) does the source give for `O=C(O)C(CC(=O)N1C[C@H]2CCCC[C@H]2C1)Cc1ccc(OCC[18F])cc1` (stereo partly shown) [compound (6)] here?
A: The value was “the approximate position of the pancreas could be distinguished noninvasively”.

Q: With `O=C(O)[C@H](CC(=O)N1C[C@H]2CCCC[C@H]2C1)Cc1ccc(OCCF)cc1` [compound (7)] as the compound, how does the “inhibition of the bond between the SU receptor and [3H]-glibenclamide” value (SU receptor; compound 1×10^−4 to 1×10^−12 M, FIG. 2) read?
A: Its value is “inhibited the bond between the SU receptor and the [^3H]-glibenclamide in the concentration-dependent manner”.

Q: What about the pEC50 (SU receptor; inhibition of [3H]-glibenclamide (1.85 pmol/L) binding, mouse islet cells 1.7×10^5 cells/sample, room temperature, 1 hour) of the same compound?
A: The pEC50 was 7.63.

Q: For `O=C(O)[C@H](CC(=O)N1C[C@H]2CCCC[C@H]2C1)Cc1ccccc1` [mitiglinide, (+)-monocalcium bis [(2S, 3a, 7a-cis)-α-benzylhexahydro-γ-oxo-2-isoindolinebutyrate]dihydrate], which “selectivity for SUR1 in vitro relative to nateglinide” value (SUR1) is on record?
A: The value was “about 100 times”.
